The values below come from PubChem BioAssay (NCI).

Test systems include SNB-75 CNS; UACC-257 melanoma; LOX IMVI melanoma; OVCAR-4 ovarian; K-562 leukemia; NCI-H522 lung; NCI-H460 lung; SF-268 CNS; SK-OV-3 ovarian; RXF 393 renal; HOP-92 NSCLC; UO-31 renal; HL-60(TB) leukemia; RPMI-8226 leukemia; UACC-62 melanoma; MOLT-4 leukemia; HOP-62 NSCLC; SNB-19 CNS; OVCAR-5 ovarian; MALME-3M melanoma.
Test in all cases: NCI anticancer screen, dose series, 48 h

SMILES strings stand for the structures.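 Each compound was tested at five concentrations against cells in 96-well plates for 48 hours. TGI denotes the concentration required for complete inhibition of growth.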

Regarding `CCNC(=O)C(C)C1CCC2(C)C=CC(=O)C(C)=C2C1O` (stereo unspecified), the TGI in the assay with SNB-75 CNS, in the assay with UACC-257 melanoma, in the assay on LOX IMVI melanoma, in the assay with OVCAR-4 ovarian, with K-562 leukemia and in the assay on NCI-H522 lung was > 100 µM throughout. Besides, the TGI in the assay on NCI-H460 lung, with SF-268 CNS, in the assay with SK-OV-3 ovarian, in the assay with RXF 393 renal, with HOP-92 NSCLC and with UO-31 renal was > 100 µM throughout. The TGI with HL-60(TB) leukemia, with RPMI-8226 leukemia, in the assay on UACC-62 melanoma, with MOLT-4 leukemia, with HOP-62 NSCLC and with SNB-19 CNS was > 100 µM in each case. The TGI in the assay with OVCAR-5 ovarian was > 100 µM.

Regarding `CCOC(=O)Cc1cc(OC)c(OC)cc1/C(Cl)=C(\CO)c1ccc(OC)c(OC)c1`, the TGI in the assay on SNB-75 CNS was 54 µM; in the assay with UACC-257 melanoma it was > 100 µM; with LOX IMVI melanoma, > 100 µM; with OVCAR-4 ovarian it was > 100 µM; in the assay with K-562 leukemia it was > 100 µM; with NCI-H460 lung, > 100 µM. Moreover, the TGI was > 100 µM with SK-OV-3 ovarian; > 100 µM with RXF 393 renal; 98.1 µM in the assay on HOP-92 NSCLC; > 100 µM in the assay on UO-31 renal; > 100 µM in the assay with HL-60(TB) leukemia; > 100 µM in the assay with RPMI-8226 leukemia. Moreover, the TGI in the assay on UACC-62 melanoma, with MOLT-4 leukemia, in the assay on SNB-19 CNS and with MALME-3M melanoma was > 100 µM in each case.

As to `O=C1C(Cl)N(c2c(Cl)cccc2Cl)C1c1c[nH]c2ccccc12` (stereo unspecified), the TGI with SNB-75 CNS, in the assay with UACC-257 melanoma, with OVCAR-4 ovarian, in the assay with K-562 leukemia, in the assay on NCI-H522 lung and in the assay with NCI-H460 lung was > 100 µM throughout. In addition, the TGI with SF-268 CNS, with SK-OV-3 ovarian, in the assay with RXF 393 renal, in the assay with HOP-92 NSCLC, in the assay on UO-31 renal and with HL-60(TB) leukemia was > 100 µM throughout. The TGI in the assay with RPMI-8226 leukemia, with UACC-62 melanoma, in the assay with MOLT-4 leukemia, in the assay with HOP-62 NSCLC, in the assay on SNB-19 CNS and in the assay on MALME-3M melanoma was > 100 µM in each case. In addition, the TGI in the assay on OVCAR-5 ovarian is > 100 µM.

With `C[N+](C)(CCCCCC[N+](C)(C)CCCN1C(=O)c2cccc3cccc(c23)C1=O)CCCN1C(=O)c2cccc3cccc(c23)C1=O`, the TGI in the assay on UACC-257 melanoma, in the assay on LOX IMVI melanoma, with OVCAR-4 ovarian, with K-562 leukemia, in the assay with NCI-H522 lung and with NCI-H460 lung was > 100 µM each time. The TGI with SF-268 CNS, in the assay with SK-OV-3 ovarian, with RXF 393 renal, in the assay with HOP-92 NSCLC, in the assay on UO-31 renal and with HL-60(TB) leukemia was > 100 µM each time. The TGI with RPMI-8226 leukemia, in the assay on UACC-62 melanoma, with MOLT-4 leukemia, in the assay with SNB-19 CNS, in the assay on MALME-3M melanoma and in the assay with OVCAR-5 ovarian was > 100 µM throughout.

For `N#C/C(=C\c1ccncc1)c1csc2ccccc12`, the TGI in the assay on SNB-75 CNS is 78.5 µM; with UACC-257 melanoma, > 75.3 µM; in the assay on LOX IMVI melanoma it was 47.9 µM; in the assay with OVCAR-4 ovarian it was > 100 µM; with K-562 leukemia it was 50.8 µM; in the assay with NCI-H522 lung, 41.9 µM. Also, the TGI was > 69 µM with NCI-H460 lung; 82.5 µM in the assay with SF-268 CNS; > 73.1 µM in the assay on SK-OV-3 ovarian; > 83.1 µM in the assay on RXF 393 renal; 51.7 µM with HOP-92 NSCLC; > 83.2 µM with UO-31 renal. Besides, the TGI with HL-60(TB) leukemia was 35.5 µM; in the assay on RPMI-8226 leukemia it was 52.3 µM; in the assay on UACC-62 melanoma it was > 76.4 µM; in the assay with MOLT-4 leukemia it was 43.1 µM; in the assay on HOP-62 NSCLC it was 63.3 µM; in the assay on SNB-19 CNS, 69.6 µM. Besides, the TGI with MALME-3M melanoma was > 96.2 µM; in the assay with OVCAR-5 ovarian, > 89.6 µM.

As to `OCC1O[C@H](O[C@@H]2CCCN3CC(O)C(O)[C@@H]23)C(O)C(O)C1O` (stereo partly specified), the TGI in the assay with SNB-75 CNS, with UACC-257 melanoma, with OVCAR-4 ovarian, in the assay with K-562 leukemia, in the assay with NCI-H522 lung and with SF-268 CNS was > 100 µM throughout. In addition, the TGI in the assay on SK-OV-3 ovarian, in the assay with HOP-92 NSCLC, with UO-31 renal, with HL-60(TB) leukemia, with UACC-62 melanoma and with MOLT-4 leukemia was > 100 µM throughout. For the same compound, the TGI in the assay on HOP-62 NSCLC, with MALME-3M melanoma and with OVCAR-5 ovarian was > 100 µM each time.

For the compound `O=C(Nc1ccc([N+](=O)[O-])cc1)Nn1cnnc1`, the TGI is > 100 µM with SNB-75 CNS; > 100 µM in the assay with UACC-257 melanoma; > 100 µM in the assay with LOX IMVI melanoma; 43.2 µM in the assay on OVCAR-4 ovarian; > 100 µM in the assay with K-562 leukemia; > 100 µM with NCI-H522 lung. Further, the TGI with NCI-H460 lung, in the assay with SF-268 CNS, in the assay on SK-OV-3 ovarian, in the assay on HOP-92 NSCLC, in the assay on UO-31 renal and with HL-60(TB) leukemia was > 100 µM in each case. Also, the TGI in the assay with RPMI-8226 leukemia was > 100 µM; in the assay on UACC-62 melanoma, > 100 µM; with MOLT-4 leukemia, > 100 µM; in the assay on HOP-62 NSCLC, > 100 µM; in the assay with SNB-19 CNS it was > 100 µM; with MALME-3M melanoma, 80 µM. Further, the TGI in the assay on OVCAR-5 ovarian is > 100 µM.

As for `S=c1sc2c(s1)SC(c1ccccc1)CS2` (stereo unspecified), the TGI was > 94.2 µM in the assay on SNB-75 CNS; > 100 µM in the assay with UACC-257 melanoma; > 100 µM with LOX IMVI melanoma; > 88.2 µM in the assay on OVCAR-4 ovarian; > 100 µM with K-562 leukemia; > 100 µM in the assay with NCI-H522 lung. Also, the TGI was > 100 µM in the assay with NCI-H460 lung; > 100 µM with SF-268 CNS; > 100 µM with SK-OV-3 ovarian; 91.5 µM in the assay on RXF 393 renal; > 100 µM in the assay on HOP-92 NSCLC; > 100 µM with UO-31 renal. In addition, the TGI with HL-60(TB) leukemia, in the assay on RPMI-8226 leukemia, in the assay on UACC-62 melanoma, in the assay with MOLT-4 leukemia, with HOP-62 NSCLC and with SNB-19 CNS was > 100 µM in each case. Further, the TGI in the assay with MALME-3M melanoma and in the assay on OVCAR-5 ovarian was > 100 µM in each case.
